12 molecules from patent US20100204167A1, “ACTIVE COMPOUND COMBINATIONS HAVING INSECTICIDAL AND ACARICIDAL PROPERTIES” (priority 2006, published 2010) can be followed below.

One assay has as its system Aphis gossypii. The experiment in a line: Aphis gossypii test (cotton leaves dipped). The format is in vivo. The note with it: single active compound.
In another assay the test system is Tetranychus urticae. Kind of assay: Tetranychus test (OP-resistant/spray treatment). The note with it: single active compound. The format is in vivo. As to the method:
Disks of bean leaves (Phaseolus vulgaris) which are infested by all stages of the greenhouse red spider mite (Tetranychus urticae) are sprayed with an active compound preparation of the desired concentration.
After the desired period of time, the activity in % is determined.

Assay [1] relates to Phaedon cochleariae larvae. The experiment in a line: Phaedon cochleariae larvae test (Example G). The note with it: 0.8 ppm, single active compound.
Assay [2] concerns Phaedon cochleariae larvae. The experiment in a line: Phaedon cochleariae larvae test (Example D, spray). It is filed as in vivo. The note with it: single active compound.
For assay [3], the system named is Myzus persicae. Kind of assay: Myzus persicae test (cabbage leaves dipped). It is filed as in vivo. The note with it: single active compound.
For assay [4], the system named is Myzus persicae. Kind of assay: Myzus persicae test (cabbage leaves sprayed). It is filed as in vivo. Particulars: single active compound.
Assay [5] deals with Spodoptera frugiperda larvae. The experiment in a line: Spodoptera frugiperda larvae test (spray). The format is in vivo. Particulars: single active compound.

On to spinosad, for which the “Kill in % after 6d” value (in the assay with Aphis gossypii (100 ppm); in assay [1]) was 20% throughout. Also, in the assay on Tetranychus urticae (4 g/ha), the “Kill in % after 2d” value is 10%.
Take `CC(C)(C)c1ccc(CSc2cnn(C(C)(C)C)c(=O)c2Cl)cc1` [pyridaben]: the “Kill in % after 6d” value in assay [2] (4 g/ha) is 33%. Moreover, in the assay with Tetranychus urticae (0.8 g/ha), the “Kill in % after 2d” value is listed as 0%.
With `CO[C@H]1CC[C@]2(CC1)NC(=O)C(c1cc(C)ccc1C)=C2O` [compound (I-1)], the “Kill in % after 6d” value with Aphis gossypii (100 ppm) was 70%; with Myzus persicae [3] (4 ppm), 5%; in assay [1], 0%.
Consider `CCOC(=O)OC1=C(c2cc(C)ccc2C)C(=O)N[C@]12CC[C@@H](OC)CC2` [compound (I-2)], for which the “Kill in % after 6d” value came to 0% with Aphis gossypii (0.8 ppm); 50% in the assay on Myzus persicae [4] (0.8 g/ha); 10% with Myzus persicae [3] (0.8 ppm); 0% in assay [2] (4 g/ha); 0% in assay [2] (20 g/ha). Moreover, the “Kill in % after 1d” value with Myzus persicae [4] (20 g/ha) was found to be 0%. Moreover, the “Kill in % after 2d” value came to 0% in assay [2] (20 g/ha); 17% in assay [5] (20 g/ha); 83% in assay [5] (100 g/ha); 20% in the assay on Tetranychus urticae (0.8 g/ha); 10% in the assay with Tetranychus urticae (20 g/ha).
Regarding `CC(C)c1cc(Oc2ccccc2)cc(C(C)C)c1NC(=S)NC(C)(C)C` [diafenthiuron], the “Kill in % after 6d” value in the assay with Myzus persicae [4] (4 g/ha) worked out at 60%. In addition, in assay [5] (100 g/ha), the “Kill in % after 2d” value is on record as 50%.
As to `CCOC(=O)OC1=C(c2cc(C)ccc2C)C(=O)NC12CCC(OC)CC2` (centres unmarked) [compound (I-2-a)], the “Kill in % after 6d” value is recorded as 0% in the assay on Aphis gossypii (0.8 ppm); 50% in the assay with Myzus persicae [4] (0.8 g/ha); 0% in the assay with Myzus persicae [3] (0.8 ppm); 0% in assay [2] (4 g/ha); 0% in assay [2] (20 g/ha). Also, the “Kill in % after 1d” value with Myzus persicae [4] (20 g/ha) amounted to 0%. Further, the “Kill in % after 2d” value was determined as 0% in assay [2] (20 g/ha); 17% in assay [5] (20 g/ha); 83% in assay [5] (100 g/ha); 0% in the assay with Tetranychus urticae (0.8 g/ha); 0% in the assay with Tetranychus urticae (20 g/ha).
Regarding `CCc1nn(C)c(C(=O)NCc2ccc(C(C)(C)C)cc2)c1Cl` [tebufenpyrad], the “Kill in % after 6d” value in assay [2] (4 g/ha) stood at 0%.
As to milbemectin, in the assay on Myzus persicae [4] (0.8 g/ha), the “Kill in % after 1d” value came out at 0%.
`COC1CCC2(CC1)NC(=O)C(c1cc(C)ccc1C)=C2O` (centres unmarked) [compound (I-1-a)]: the “Kill in % after 6d” value in the assay on Aphis gossypii (100 ppm) came out at 50%; in the assay with Myzus persicae [3] (4 ppm) it was 20%; in assay [1], 0%.
For `Cc1nn(C)c(Oc2ccccc2)c1C=NOCc1ccc(C(=O)OC(C)(C)C)cc1` [fenpyroximate], the “Kill in % after 1d” value in the assay with Myzus persicae [4] (20 g/ha) is listed as 20%. Moreover, in assay [2] (20 g/ha), the “Kill in % after 6d” value worked out at 33%. Moreover, the “Kill in % after 2d” value in assay [5] (100 g/ha) is 50%.
Regarding abamectin, the entries for the “Kill in % after 6d” value in the assay with Aphis gossypii (0.8 ppm), in the assay with Myzus persicae [3] (0.8 ppm) and in the assay on Myzus persicae [3] (4 ppm) were 45%, 10% and 65%, respectively.
Consider `CCOCn1c(-c2ccc(Cl)cc2)c(C#N)c(Br)c1C(F)(F)F` [chlorfenapyr], for which the “Kill in % after 2d” value in assay [2] (4 g/ha) stood at 0%.
